This is an account of results in publication PMC8470104, “Anti-Metatype Antibody Screening, Sandwich Immunoassay Development, and Structural Insights for β-Lactams Based on Penicillin Binding Protein” (Molecules, 2021).

In one experiment the target is PBP2x* (Streptococcus pneumoniae, UniProt P14677). Nature of the experiment: direct competitive ELISA, binding affinity of β-lactams to PBP2x*. Conditions: for IC50: IC50 (affinity to PBP2x*). The source says: The anti-metatype antibodies that recognize the complex formed by the receptor and ligand was developed by immunization. The success of the immunization depends on the stability of the receptor–drug complex. In the present study, we hypothesized that the complex formed by PBP2x* and β-lactams with high affinity to PBP2x* would achieve higher stability, because more non-covalent bonds typically tend to form between the two. In addition, the conformational change of PBP2x* induced by the combination of the β-lactams with high affinity may be greater due to the existence of more interaction forces, which stimulate the PBP2x* to some extent. Therefore, a direct competitive ELISA was carried out to determine the affinity of 18 β-lactams to PBP2x*. […] In the cephalosporin group, CPZ, CFN, CFZ, and CFM performed poorly: affinities with IC50 were greater than 10 ng/mL, which was almost 2–50-fold that of other drugs such as CTRX, CTX, and KF. (Table 2). Therefore, for the preparation of anti-metatype antibodies, five β-lactams (including PNG, AMP, AMX, CTX, and KF) with high affinity to PBP2x* were selected to form a complex with PBP2x*.
The PBP2x* (100 μL/well) was diluted to an appropriate concentration and coated on microtiter plates, and incubated overnight at 4 °C. After the solution was poured, the plates were washed 3 times with washing buffer and patted dry. Then, 150 μL of blocking solution was added to each well, followed by 1 h of incubation at 37 °C. The β-lactam standards (50 μL), which were diluted to a series of concentrations, were added into each well, then 50 μL of the enzyme marker prepared in our previous study was added, and incubated at 37 °C for 30 min. After the washing procedure, the color was developed by adding tetramethylbenzidine (TMB) substrate. Finally, 2 M H2SO4 (50 μL/well) was used to stop the enzymatic reaction, and the optical density (OD) values of 450 nm was measured.
For orientation: ELISA stands for enzyme-linked immunosorbent assay.

Experiment [1] concerns PBP2x*-β-lactam complexes. Nature of the experiment: sandwich immunoassay of 18 PBP2x*-β-lactam complexes (capture mAb 4H11, detection pAb #5). Conditions: 1000 ng/mL; mAb 4H11 capture, pAb #5 detection; n = 3; S/N > 1 positive detection. It is filed as binding. On the procedure: Microtiter plates were coated with 100 μL anti-mouse IgG antibody in CB buffer and incubated at 4 °C overnight. The plates were subsequently washed and blocked with 150 μL of 2% skim milk. Then, 100 μL of diluted mAb was added to the wells and incubated for 1 h at 37 °C. After washing, 100 μL individual PBP2x* or receptor–ligand complexes of 18 β-lactams with PBP2x* that were diluted to 1 μg/mL was added. The incubation was carried out at 37 °C for 1 h, followed by another washing procedure. Then, 100 μL diluted HRP-labeled pAb was added to the wells and incubated for 1 h at 37 °C. The TMB substrate solution was added after washing, followed by the addition of 2 M H2SO4 to stop the reaction, and finally the OD values were measured at 450 nm.

The mark [2] stands for this setting: PBP2x* coated, enzyme marker competitor.

Chain of PBP2x* (P14677 49-750): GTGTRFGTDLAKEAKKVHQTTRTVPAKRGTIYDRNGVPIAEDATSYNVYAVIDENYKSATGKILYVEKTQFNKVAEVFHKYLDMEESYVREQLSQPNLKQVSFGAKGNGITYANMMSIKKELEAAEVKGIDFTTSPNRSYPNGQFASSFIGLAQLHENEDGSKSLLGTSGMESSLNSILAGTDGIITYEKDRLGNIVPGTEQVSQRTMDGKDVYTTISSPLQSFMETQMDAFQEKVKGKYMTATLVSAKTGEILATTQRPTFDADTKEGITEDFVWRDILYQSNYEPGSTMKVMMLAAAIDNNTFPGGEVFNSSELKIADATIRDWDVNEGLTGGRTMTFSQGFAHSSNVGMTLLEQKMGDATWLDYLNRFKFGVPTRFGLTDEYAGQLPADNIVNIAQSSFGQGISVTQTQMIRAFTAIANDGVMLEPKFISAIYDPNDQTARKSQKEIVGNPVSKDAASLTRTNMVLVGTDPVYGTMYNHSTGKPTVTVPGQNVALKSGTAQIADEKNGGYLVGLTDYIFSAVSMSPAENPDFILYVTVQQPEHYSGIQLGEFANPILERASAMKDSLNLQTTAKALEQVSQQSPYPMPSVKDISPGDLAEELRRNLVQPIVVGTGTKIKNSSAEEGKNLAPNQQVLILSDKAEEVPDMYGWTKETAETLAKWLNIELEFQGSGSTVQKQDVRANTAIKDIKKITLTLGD

With `CC1(C)S[C@@H]2[C@H](NC(=O)[C@H](N)c3ccccc3)C(=O)N2[C@H]1C(=O)O` [AMP, Ampicillin], on PBP2x*, the “affinity to PBP2x* (in words)” value is recorded as “high affinity”. Also, the IC50 on PBP2x* (setting [2]) is 0.0223 µM. Besides, the “Signal-to-noise ratio (S/N) of the sandwich immunoassay” value (“Signal-to-noise ratio (S/N)” for short) in experiment [1] was < 1.
For `CC1(C)S[C@@H]2[C@H](NC(=O)[C@H](N)c3ccc(O)cc3)C(=O)N2[C@H]1C(=O)O` [AMX, Amoxicillin], in that order: “high affinity”, 0.0187 µM and < 1.
Consider `CC1(C)S[C@@H]2[C@H](NC(=O)[C@H](NC(=O)N3CCNC3=O)c3ccccc3)C(=O)N2[C@H]1C(=O)O` [AZL, Azlocillin], for which, on PBP2x*, the “affinity to PBP2x* (in words)” value is on record as “high affinity”. For the same compound, on PBP2x* (setting [2]), the IC50 was 0.0145 µM.
On to `CC(=O)OCC1=C(C(=O)O)N2C(=O)[C@@H](NC(=O)CSc3ccncc3)[C@H]2SC1` [CFAP, Cefapirin], for which the IC50 at PBP2x* (setting [2]) is 0.0143 µM.
On the same count and under the same terms, the result for `C=CC1=C(C(=O)O)N2C(=O)[C@@H](NC(=O)/C(=N\OCC(=O)O)c3csc(N)n3)[C@H]2SC1` [CFM, Cefixime] reads 0.0647 µM; that for `NC(=O)c1cc[n+](CC2=C(C(=O)[O-])N3C(=O)[C@@H](NC(=O)Cc4cccs4)[C@H]3SC2)cc1` [CFN, Cefalonium], 0.0334 µM.
Still for that read-out and setting: in the case of `CO/N=C(\C(=O)N[C@@H]1C(=O)N2C(C(=O)[O-])=C(C[N+]3(C)CCCC3)CS[C@H]12)c1csc(N)n1` [CFP, Cefepime] it was 0.0152 µM.
On the same count and under the same terms, the result for `CO/N=C(\C(=O)N[C@@H]1C(=O)N2C(C(=O)O)=C(CSC(=O)c3ccco3)CS[C@H]12)c1csc(N)n1` [CFT, Ceftiofur] reads 0.00502 µM; that for `Cc1nnc(SCC2=C(C(=O)O)N3C(=O)[C@@H](NC(=O)Cn4cnnn4)[C@H]3SC2)s1` [CFZ, Cefazolin], 0.0536 µM.
On to `Cc1onc(-c2ccccc2Cl)c1C(=O)N[C@@H]1C(=O)N2[C@@H]1SC(C)(C)[C@@H]2C(=O)O` [CLX, Cloxacillin], for which the “affinity to PBP2x* (in words)” value on PBP2x* is “relatively poor affinity”. Besides, the IC50 at PBP2x* (setting [2]) was 0.173 µM.
Consider `CCN1CCN(C(=O)N[C@@H](C(=O)N[C@@H]2C(=O)N3C(C(=O)O)=C(CSc4nnnn4C)CS[C@H]23)c2ccc(O)cc2)C(=O)C1=O` [CPZ, Cefoperazone], for which, on PBP2x* (setting [2]), the half-maximal inhibitory concentration (IC50) is 0.155 µM.
Still for that read-out and setting: the result for `CO/N=C(\C(=O)N[C@@H]1C(=O)N2C(C(=O)O)=C(CSc3nc(=O)c(=O)[nH]n3C)CS[C@H]12)c1csc(N)n1` [CTRX, Cefatriaxone] reads 0.00424 µM.
In the case of `CO/N=C(\C(=O)N[C@@H]1C(=O)N2C(C(=O)O)=C(COC(C)=O)CS[C@H]12)c1csc(N)n1` [CTX, Cefotaxime], the “affinity to PBP2x* (in words)” value at PBP2x* is “high affinity”. Also, the IC50 at PBP2x* (setting [2]) was 0.0104 µM.
For `Cc1onc(-c2c(Cl)cccc2Cl)c1C(=O)N[C@@H]1C(=O)N2[C@@H]1SC(C)(C)[C@@H]2C(=O)O` [DCX, Dicloxacillin], in that order: “relatively poor affinity” and 0.0326 µM.
In the case of `CC(=O)OCC1=C(C(=O)O)N2C(=O)[C@@H](NC(=O)Cc3cccs3)[C@H]2SC1` [KF, Cefalothin], at PBP2x*, the “affinity to PBP2x* (in words)” value is “high affinity”. Further, at PBP2x* (setting [2]), the “IC50 (affinity to PBP2x*)” value is recorded as 7.89 ng/mL. In addition, the “Signal-to-noise ratio (S/N)” value in experiment [1] is reported as < 1.
Take `Cc1onc(-c2ccccc2)c1C(=O)N[C@@H]1C(=O)N2[C@@H]1SC(C)(C)[C@@H]2C(=O)O` [OXA, Oxacillin]: the “affinity to PBP2x* (in words)” value at PBP2x* is “relatively poor affinity”. The IC50 on PBP2x* (setting [2]) was 0.0251 µM.
Take `CCN1CCN(C(=O)N[C@@H](C(=O)N[C@@H]2C(=O)N3[C@@H]2SC(C)(C)[C@@H]3C(=O)O)c2ccccc2)C(=O)C1=O` [PIPC, Piperacillin]: the “affinity to PBP2x* (in words)” value on PBP2x* is recorded as “high affinity”. Moreover, the half-maximal inhibitory concentration (IC50) on PBP2x* (setting [2]) is 0.015 µM.
Consider `CC1(C)S[C@@H]2[C@H](NC(=O)Cc3ccccc3)C(=O)N2[C@H]1C(=O)O` [PNG, Penicillin G], for which the “affinity to PBP2x* (in words)” value on PBP2x* is on record as “high affinity”. The IC50 at PBP2x* (setting [2]) was 0.0106 µM. The “Signal-to-noise ratio (S/N)” value in experiment [1] was < 1.

By IC50 is commonly meant the concentration at which inhibition is half-maximal.
